# PubChem BioAssay AID2060502 (Molecular Pharmacology Branch, DTP, NCI, 2025)
# Tested on: 885724-159-R-J1-PDC complex spheroid viability
# Test: Anticancer human tumor 885724-159-R-J1-PDC patient-derived pancreatic adenocarcinoma cell line growth inhibition [GQUAD]
# Settings: for IC50: curve of first compound; for viability, T/C: stronger effect = lower value
# Outline: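 Tumor cells were grown as complex spheroids with HUVEC endothelial cells and mesenchymal stem cells as stroma. G-quadruplex stabilizers were combined with targeted agents over half-log dilutions from near the clinical Cmax, or from 10 microM.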
# [1] = second compound 0.0316 µM, first compound 0.0316 µM
# [2] = second compound 0.0316 µM, first compound 0.1 µM
# [3] = second compound 0.0316 µM, first compound 0.316 µM
# [4] = second compound 0.0316 µM, first compound 1 µM
# [5] = second compound 0.0316 µM, first compound 3.16 µM
# [6] = second compound 0.0316 µM, first compound 10 µM
# [7] = second compound 0.1 µM, first compound 0.0316 µM
# [8] = second compound 0.1 µM, first compound 0.1 µM
# [9] = second compound 0.1 µM, first compound 0.316 µM
# [10] = second compound 0.1 µM, first compound 1 µM
# [11] = second compound 0.1 µM, first compound 3.16 µM
# [12] = second compound 0.1 µM, first compound 10 µM
# [13] = second compound 0.316 µM, first compound 0.0316 µM
# [14] = second compound 0.316 µM, first compound 0.1 µM
# [15] = second compound 0.316 µM, first compound 0.316 µM
# [16] = second compound 0.316 µM, first compound 1 µM
# [17] = second compound 0.316 µM, first compound 3.16 µM
# [18] = second compound 0.316 µM, first compound 10 µM
# [19] = second compound 1 µM, first compound 0.0316 µM
# [20] = second compound 1 µM, first compound 0.1 µM
# [21] = second compound 1 µM, first compound 0.316 µM
# [22] = second compound 1 µM, first compound 1 µM
# [23] = second compound 1 µM, first compound 3.16 µM
# [24] = second compound 1 µM, first compound 10 µM
# [25] = second compound 3.16 µM, first compound 0.0316 µM
# [26] = second compound 3.16 µM, first compound 0.1 µM
# [27] = second compound 3.16 µM, first compound 0.316 µM
# [28] = second compound 3.16 µM, first compound 1 µM
# [29] = second compound 3.16 µM, first compound 3.16 µM
# [30] = second compound 3.16 µM, first compound 10 µM
# [31] = second compound 10 µM, first compound 0.0316 µM
# [32] = second compound 10 µM, first compound 0.1 µM
# [33] = second compound 10 µM, first compound 0.316 µM
# [34] = second compound 10 µM, first compound 1 µM
# [35] = second compound 10 µM, first compound 3.16 µM
# [36] = second compound 10 µM, first compound 10 µM
# 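Also: spheroids exposed to agents for seven days before readout.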
# 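For viability, T/C in this document: percent of vehicle control viability where 100% = DMSO wells.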
compound,measurement,setting,value
CC(=O)O[C@H]1C(=O)[C@@]2(C)[C@H]([C@H](OC(=O)c3ccccc3)[C@]3(O)C[C@H](OC(=O)[C@H](O)[C@@H](NC(=O)c4ccccc4)c4ccccc4)C(C)=C1C3(C)C)[C@]1(OC(C)=O)CO[C@@H]1C[C@@H]2O + Cc1cnc(CNC(=O)c2c(=O)c3ccc(N4CCCN(C)CC4)nc3n3c2sc2ccccc23)cn1,IC50,second compound 0.0316 µM,> 10 µM
same,IC50,second compound 0.1 µM,> 10 µM
same,IC50,second compound 0.316 µM,> 10 µM
same,IC50,second compound 1 µM,> 10 µM
same,IC50,second compound 3.16 µM,> 10 µM
same,IC50,second compound 10 µM,> 10 µM
same,"viability, T/C",[1],103%
same,"viability, T/C",[2],97.3%
same,"viability, T/C",[3],96.9%
same,"viability, T/C",[4],108%
same,"viability, T/C",[5],104%
same,"viability, T/C",[6],107%
same,"viability, T/C",[7],111%
same,"viability, T/C",[8],105%
same,"viability, T/C",[9],99.3%
same,"viability, T/C",[10],119%
same,"viability, T/C",[11],113%
same,"viability, T/C",[12],108%
same,"viability, T/C",[13],110%
same,"viability, T/C",[14],114%
same,"viability, T/C",[15],107%
same,"viability, T/C",[16],88.7%
same,"viability, T/C",[17],118%
same,"viability, T/C",[18],105%
same,"viability, T/C",[19],95.9%
same,"viability, T/C",[20],93.3%
same,"viability, T/C",[21],98.9%
same,"viability, T/C",[22],93.6%
same,"viability, T/C",[23],106%
same,"viability, T/C",[24],86%
same,"viability, T/C",[25],77%
same,"viability, T/C",[26],78.6%
same,"viability, T/C",[27],84.9%
same,"viability, T/C",[28],79.5%
same,"viability, T/C",[29],88.8%
same,"viability, T/C",[30],99.6%
same,"viability, T/C",[31],66%
same,"viability, T/C",[32],68.7%
same,"viability, T/C",[33],78.4%
same,"viability, T/C",[34],78.8%
same,"viability, T/C",[35],74.1%
same,"viability, T/C",[36],70.1%
C=CCn1c(=O)c2cnc(Nc3ccc(N4CCN(C)CC4)cc3)nc2n1-c1cccc(C(C)(C)O)n1 + Cc1[nH]c2ccc(F)cc2c1-c1nc2c3cccnc3c3ncccc3c2[nH]1,IC50,second compound 0.0316 µM,> 10 µM
same,IC50,second compound 0.1 µM,> 10 µM
same,IC50,second compound 0.316 µM,> 10 µM
same,IC50,second compound 1 µM,0.558 µM
same,IC50,second compound 3.16 µM,< 0.0316 µM
same,IC50,second compound 10 µM,0.455 µM
same,"viability, T/C",[1],88.7%
same,"viability, T/C",[2],87.8%
same,"viability, T/C",[3],71.1%
same,"viability, T/C",[4],63.7%
same,"viability, T/C",[5],68.8%
same,"viability, T/C",[6],73.9%
same,"viability, T/C",[7],90.3%
same,"viability, T/C",[8],90%
same,"viability, T/C",[9],84.3%
same,"viability, T/C",[10],79.6%
same,"viability, T/C",[11],63.5%
same,"viability, T/C",[12],71.8%
same,"viability, T/C",[13],83.1%
same,"viability, T/C",[14],83.1%
same,"viability, T/C",[15],68.7%
same,"viability, T/C",[16],57.6%
same,"viability, T/C",[17],74%
same,"viability, T/C",[18],67.1%
same,"viability, T/C",[19],70.9%
same,"viability, T/C",[20],55.3%
same,"viability, T/C",[21],52.1%
same,"viability, T/C",[22],49.9%
same,"viability, T/C",[23],50.9%
same,"viability, T/C",[24],41.3%
same,"viability, T/C",[25],12.9%
same,"viability, T/C",[26],8.26%
same,"viability, T/C",[27],11.1%
same,"viability, T/C",[28],5.9%
same,"viability, T/C",[29],9.96%
same,"viability, T/C",[30],8.31%
same,"viability, T/C",[31],63.5%
same,"viability, T/C",[32],58.5%
same,"viability, T/C",[33],47.3%
same,"viability, T/C",[34],47%
same,"viability, T/C",[35],50%
same,"viability, T/C",[36],38.1%
CC1COCCN1c1cc(C2(S(C)(=N)=O)CC2)nc(-c2ccnc3[nH]ccc23)n1 (stereo not given) + Cc1[nH]c2ccc(F)cc2c1-c1nc2c3cccnc3c3ncccc3c2[nH]1,IC50,second compound 0.0316 µM,> 10 µM
same,IC50,second compound 0.1 µM,> 10 µM
same,IC50,second compound 0.316 µM,> 10 µM
same,IC50,second compound 1 µM,> 10 µM
same,IC50,second compound 3.16 µM,0.137 µM
same,IC50,second compound 10 µM,> 10 µM
same,"viability, T/C",[1],105%
same,"viability, T/C",[2],113%
same,"viability, T/C",[3],103%
same,"viability, T/C",[4],90.3%
same,"viability, T/C",[5],95.7%
same,"viability, T/C",[6],76.2%
same,"viability, T/C",[7],110%
same,"viability, T/C",[8],103%
same,"viability, T/C",[9],95.7%
same,"viability, T/C",[10],103%
same,"viability, T/C",[11],77.2%
same,"viability, T/C",[12],68.1%
same,"viability, T/C",[13],90.3%
same,"viability, T/C",[14],99.9%
same,"viability, T/C",[15],93.6%
same,"viability, T/C",[16],93.6%
same,"viability, T/C",[17],92.4%
same,"viability, T/C",[18],67.6%
same,"viability, T/C",[19],81.8%
same,"viability, T/C",[20],72.5%
same,"viability, T/C",[21],78.8%
same,"viability, T/C",[22],68.7%
same,"viability, T/C",[23],66.6%
same,"viability, T/C",[24],64.1%
same,"viability, T/C",[25],62.5%
same,"viability, T/C",[26],43.8%
same,"viability, T/C",[27],56%
same,"viability, T/C",[28],36.3%
same,"viability, T/C",[29],48.3%
same,"viability, T/C",[30],36%
same,"viability, T/C",[31],68.1%
same,"viability, T/C",[32],77.2%
same,"viability, T/C",[33],67.5%
same,"viability, T/C",[34],74.3%
same,"viability, T/C",[35],61.1%
same,"viability, T/C",[36],54.7%
O=c1[nH]cc(F)c(=O)[nH]1 + Cc1cnc(CNC(=O)c2c(=O)c3ccc(N4CCCN(C)CC4)nc3n3c2sc2ccccc23)cn1,IC50,second compound 0.0316 µM,> 10 µM
same,IC50,second compound 0.1 µM,> 10 µM
same,IC50,second compound 0.316 µM,> 10 µM
same,IC50,second compound 1 µM,> 10 µM
same,IC50,second compound 3.16 µM,> 10 µM
same,IC50,second compound 10 µM,> 10 µM
same,"viability, T/C",[1],108%
same,"viability, T/C",[2],107%
same,"viability, T/C",[3],116%
same,"viability, T/C",[4],118%
same,"viability, T/C",[5],87.1%
same,"viability, T/C",[6],88.8%
same,"viability, T/C",[7],103%
same,"viability, T/C",[8],107%
same,"viability, T/C",[9],112%
same,"viability, T/C",[10],116%
same,"viability, T/C",[11],92.1%
same,"viability, T/C",[12],102%
same,"viability, T/C",[13],99.2%
same,"viability, T/C",[14],109%
same,"viability, T/C",[15],91.5%
same,"viability, T/C",[16],103%
same,"viability, T/C",[17],96.4%
same,"viability, T/C",[18],97.1%
same,"viability, T/C",[19],84.2%
same,"viability, T/C",[20],84.1%
same,"viability, T/C",[21],100%
same,"viability, T/C",[22],87.1%
same,"viability, T/C",[23],86.2%
same,"viability, T/C",[24],83%
same,"viability, T/C",[25],78.2%
same,"viability, T/C",[26],89.7%
same,"viability, T/C",[27],90.5%
same,"viability, T/C",[28],78.1%
same,"viability, T/C",[29],83.8%
same,"viability, T/C",[30],84.4%
same,"viability, T/C",[31],81.7%
same,"viability, T/C",[32],77%
same,"viability, T/C",[33],74.8%
same,"viability, T/C",[34],84%
same,"viability, T/C",[35],77.8%
same,"viability, T/C",[36],72.2%
O=c1[nH]cc(F)c(=O)[nH]1 + CN(C)c1ccc(Nc2c3ccc(NC(=O)CCN4CCCC4)cc3nc3cc(NC(=O)CCN4CCCC4)ccc23)cc1,IC50,second compound 0.0316 µM,> 10 µM
same,IC50,second compound 0.1 µM,> 10 µM
same,IC50,second compound 0.316 µM,> 10 µM
same,IC50,second compound 1 µM,> 10 µM
same,IC50,second compound 3.16 µM,> 10 µM
same,IC50,second compound 10 µM,> 10 µM
same,"viability, T/C",[1],105%
same,"viability, T/C",[2],103%
same,"viability, T/C",[3],98.7%
same,"viability, T/C",[4],100%
same,"viability, T/C",[5],78%
same,"viability, T/C",[6],85.8%
same,"viability, T/C",[7],90.8%
same,"viability, T/C",[8],103%
same,"viability, T/C",[9],101%
same,"viability, T/C",[10],95.8%
same,"viability, T/C",[11],86.4%
same,"viability, T/C",[12],97.2%
same,"viability, T/C",[13],89%
same,"viability, T/C",[14],88.1%
same,"viability, T/C",[15],87.7%
same,"viability, T/C",[16],79.7%
same,"viability, T/C",[17],86.5%
same,"viability, T/C",[18],78.5%
same,"viability, T/C",[19],91.7%
same,"viability, T/C",[20],69.9%
same,"viability, T/C",[21],80.5%
same,"viability, T/C",[22],73.3%
same,"viability, T/C",[23],76.3%
same,"viability, T/C",[24],83.2%
same,"viability, T/C",[25],82.7%
same,"viability, T/C",[26],83.5%
same,"viability, T/C",[27],87.8%
same,"viability, T/C",[28],80.6%
same,"viability, T/C",[29],71.4%
same,"viability, T/C",[30],75.5%
same,"viability, T/C",[31],76%
same,"viability, T/C",[32],80%
same,"viability, T/C",[33],80.6%
same,"viability, T/C",[34],79%
same,"viability, T/C",[35],87.8%
same,"viability, T/C",[36],75%
